Measured values reported in US7205295B2, “Benzoxazin-3-ones and derivatives thereof as therapeutic agents” (Warner-Lambert Company LLC, priority 2002, dated 2007).

biological target: T1, PI3Kγ (p101/p110γ protein) (Homo sapiens, UniProt P48736); assay: PI3Kγ In Vitro Kinase Assay; format: biochemical; details: purified recombinant p101/p110γ with G protein β1/γ2 subunits; 20 μM ATP, 25 μM PIP2; 20 minutes at room temperature
T1 construct: HA; made in house; host or cells: Spodoptera frugiperda (Sf9) cells, baculovirus co-infection
Experimental: Spodtera frugiperda cells, grown in ESF921 media, were coinfected with baculovirus expressing a glu-tagged p101 and baculovirus expressing an HA-tagged p110γ, at a 3:1 ratio of p101 baculovirus to p110γ baculovirus. Sf9 cells were grown to 1×10^7 total cells/mL in 10L bioreactors and harvested 48-72 hours post infection. Samples of infected cells were then tested for expression of p101/p110γ PI3 kinase by immunoprecipitation and Western Blot analysis methods (see below). […] NaCl was added to 150 mM, and sodium cholate was added to 1% and mixed for another 45 minutes. The lysates were clarified by centrifugation for 25 minutes at 14,000 rpm. The lysates were then loaded over anti-glu-linked Protein-G Sepaharose beads (Covance Research Products, Richmond, Calif.) using 20 mL resin/50 g cell paste. […] PI3Kγ was eluted with 6 column volumes of wash buffer that contain 100 μg/mL of a peptide that competes for binding of the glu tag. […] The fractions were stored at -80° C. until further use. Spodtera frugiperda cells were coinfected with baculovirus expressing a glu-tagged G protein β1 and baculovirus expressing a G protein […] at a 1:1 ratio of glu-tagged G protein β1 baculovirus to G protein β2 baculovirus. Sf9 cells are grown in 10 L bioreactors and harvested 48-72 hours post infection. Samples of infected cells were tested for G protein β1/β2 expression by Western Blot analysis, as described below. Cell lysates were homogenized and loaded onto a column of glu-tagged beads as in Biological Example 1 and competed off the column with a glu peptide as described in Biological Example 1. The inhibitory properties of the compounds in Table 1 were assayed in an in vitro PI3K assay. In a 96-well polypropylene plate, each well was spotted with 2 μL of […] the desired final concentration of compound in DMSO. Purified recombinant p101/p110γ protein (0.03 μg; 2.7 nM) and G protein β1/γ2 subunits (0.09 μg; 57.7 nM) for each reaction was combined in the assay buffer (30 mM HEPES, 100 mM NaCl, 1 mM EGTA, and 1 mM DTT). ATP and [γ-^32P-ATP] (0.09 μCi) were added to this mixture so that the final ATP concentration in the reaction was 20 μM. Lipid micelles were formed by sonicating phosphatidylinositol-4,5-diphosphate (PIP2), phosphatidylethanolamine (PE), and Na-cholate in the assay buffer for 10 minutes, adding MgCL2 and incubating on ice for 20 minutes, for final concentrations of 25 μM PIP2, 300 [M PE, 0.02% Na-cholate, and 10 mM MgCl2 in the reaction. The reactions were started by adding equal volumes lipid and enzyme mixture in a total volume of 50 μL, allowed to run for 20 minutes at room temperature, and stopped with 100 μL 75 mM H3PO4. The lipid product was transferred to a glass fiber filter plate and washed with 75 mM H3PO4 several times. The presence of radioactive lipid product (PIP3) was measured by adding Wallac Optiphase mix to each well and counting in a Wallac 1450 Trilux plate reader (PerkinElmer Life Sciences Inc., Boston, Mass. 02118).

T1 sequence (P48736 whole entry, species assumed): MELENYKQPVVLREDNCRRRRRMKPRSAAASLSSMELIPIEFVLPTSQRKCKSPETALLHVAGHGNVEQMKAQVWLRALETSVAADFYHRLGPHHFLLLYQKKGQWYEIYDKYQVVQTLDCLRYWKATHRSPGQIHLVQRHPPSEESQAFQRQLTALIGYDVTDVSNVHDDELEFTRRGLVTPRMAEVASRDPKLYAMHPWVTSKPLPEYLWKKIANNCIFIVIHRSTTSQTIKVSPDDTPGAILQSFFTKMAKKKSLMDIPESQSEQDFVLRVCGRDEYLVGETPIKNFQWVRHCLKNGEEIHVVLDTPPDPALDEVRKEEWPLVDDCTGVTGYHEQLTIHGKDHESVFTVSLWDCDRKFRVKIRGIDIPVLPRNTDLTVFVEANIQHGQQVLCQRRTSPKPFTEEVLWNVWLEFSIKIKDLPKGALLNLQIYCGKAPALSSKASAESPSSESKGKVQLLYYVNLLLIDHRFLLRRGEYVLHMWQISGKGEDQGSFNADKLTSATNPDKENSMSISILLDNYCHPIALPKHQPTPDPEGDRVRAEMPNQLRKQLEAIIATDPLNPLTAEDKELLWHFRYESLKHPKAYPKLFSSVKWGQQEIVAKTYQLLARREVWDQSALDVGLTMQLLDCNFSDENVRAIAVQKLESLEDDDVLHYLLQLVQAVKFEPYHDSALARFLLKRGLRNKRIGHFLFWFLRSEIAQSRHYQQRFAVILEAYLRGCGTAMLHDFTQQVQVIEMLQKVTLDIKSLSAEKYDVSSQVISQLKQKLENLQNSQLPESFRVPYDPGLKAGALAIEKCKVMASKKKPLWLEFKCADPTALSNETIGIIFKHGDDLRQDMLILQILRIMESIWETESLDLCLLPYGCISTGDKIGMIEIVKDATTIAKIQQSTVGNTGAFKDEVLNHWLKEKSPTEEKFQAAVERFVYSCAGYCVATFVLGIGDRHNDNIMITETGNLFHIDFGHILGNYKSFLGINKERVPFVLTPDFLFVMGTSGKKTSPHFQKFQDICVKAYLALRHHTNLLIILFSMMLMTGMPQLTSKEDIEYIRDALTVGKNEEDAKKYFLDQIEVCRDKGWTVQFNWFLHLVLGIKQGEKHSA
T1 sequence (Q8WYR1 whole entry partner, species assumed): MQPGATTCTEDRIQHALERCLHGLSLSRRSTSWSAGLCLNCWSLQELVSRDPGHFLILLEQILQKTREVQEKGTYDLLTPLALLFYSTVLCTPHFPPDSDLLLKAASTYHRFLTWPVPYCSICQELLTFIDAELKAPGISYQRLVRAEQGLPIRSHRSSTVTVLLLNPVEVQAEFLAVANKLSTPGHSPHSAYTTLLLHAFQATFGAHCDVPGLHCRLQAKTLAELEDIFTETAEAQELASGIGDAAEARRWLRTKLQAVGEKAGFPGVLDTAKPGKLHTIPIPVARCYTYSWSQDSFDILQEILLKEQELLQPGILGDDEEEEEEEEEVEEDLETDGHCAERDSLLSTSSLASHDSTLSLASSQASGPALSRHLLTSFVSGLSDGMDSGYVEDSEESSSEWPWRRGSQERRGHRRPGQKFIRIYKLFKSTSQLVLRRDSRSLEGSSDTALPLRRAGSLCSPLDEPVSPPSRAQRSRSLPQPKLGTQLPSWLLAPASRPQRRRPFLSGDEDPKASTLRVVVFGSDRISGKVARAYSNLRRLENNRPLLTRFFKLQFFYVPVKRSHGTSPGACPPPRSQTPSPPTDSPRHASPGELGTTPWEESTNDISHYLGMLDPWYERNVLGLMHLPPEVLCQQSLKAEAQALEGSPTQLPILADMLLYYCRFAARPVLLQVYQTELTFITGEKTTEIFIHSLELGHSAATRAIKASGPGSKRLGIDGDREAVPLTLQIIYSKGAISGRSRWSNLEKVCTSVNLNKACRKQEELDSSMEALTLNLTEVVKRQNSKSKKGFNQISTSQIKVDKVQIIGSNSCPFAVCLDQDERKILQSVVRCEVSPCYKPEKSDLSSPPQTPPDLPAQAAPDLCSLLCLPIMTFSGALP

Going from O=C1NC(=S)SC1=Cc1ccc2c(c1)N(Cc1ccc3ccccc3c1)C(=O)CO2 [Example 11, 4-Naphthalen-2-ylmethyl-6-(4-oxo-2-thioxo-thiazolidin-5-ylidenemethyl)-4H-1,4-benzoxazin-3-one] to O=C1NC(=S)SC1=Cc1ccc2c(c1)N(Cc1ccc(F)cc1)C(=O)CO2 [Example 303, 4-(4-Fluoro-benzyl)-6-(4-oxo-2-thioxo-thiazolidin-5-ylidenemethyl)-4H-benzo[1,4]oxazin-3-one], the IC50 falls from 61 nM to 2 nM (30-fold). The second is the more potent here.

Going from COc1cc(CN2C(=O)COc3ccc(C=C4SC(=S)NC4=O)cc32)cc(OC)n1 [Example 206, 4-(2,6-Dimethoxy-pyridin-4-ylmethyl)-6-(4-oxo-2-thioxo-thiazolidin-5-ylidenemethyl)-4H-benzo[1,4]oxazine-3-one] to Cc1cc(C)cc(CN2C(=O)COc3ccc(C=C4SC(=S)NC4=O)cc32)c1 [Example 150, 4-(3,5-Dimethyl-benzyl)-6-(4-oxo-2-thioxo-thiazolidin-5-ylidenemethyl)-4H-benzo[1,4]oxazin-3-one], the IC50 falls from 60 nM to 5 nM (12-fold).

Going from CC1Oc2ccc(C=C3SC(=S)NC3=O)cc2N(Cc2ccc(CN3CCN(C)CC3)cc2)C1=O (stereo not shown) [Example 223, 2-Methyl-4-[4-(4-methyl-piperazin-1-ylmethyl)-benzyl]-6-(4-oxo-2-thioxo-thiazolidin-5-ylidenemethyl)-4H-1,4-benzoxazin-3-one] to O=C1NC(=S)SC1=Cc1ccc2c(c1)N(Cc1ccc(CN3CCN(c4ccccc4)CC3)cc1)C(=O)CO2 [Example 35, 6-(4-Oxo-2-thioxo-thiazolidin-5-ylidenemethyl)-4-[4-(4-phenyl-piperazin-1-ylmethyl)-benzyl]-4H-1,4-benzoxazin-3-one], the IC50 falls from 295 nM to 12 nM (25-fold).

First: O=C1NC(=S)SC1=Cc1ccc2c(c1)N(Cc1ccc(Cl)c(Cl)c1)C(=O)CS2 [Example 198, 4-(3,4-Dichloro-benzyl)-6-(4-oxo-2-thioxo-thiazolidin-5-ylidenemethyl)-4H-1,4-benzothiazin-3-one]
Second: O=C1NC(=S)SC1=Cc1ccc2c(c1)N(Cc1ccccc1)C(=O)CS2 [Example 81, 4-Benzyl-6-(4-oxo-2-thioxo-thiazolidin-5-ylidenemethyl)-4H-1,4-benzothiazin-3-one]
The IC50 of the first is 4.8-fold lower: 6 nM for the first, 29 nM for the second. The first is the more potent here.

First: CC(C)(O)c1cccc(CN2C(=O)COc3ccc(/C=C4\SC(=S)NC4=O)cc32)c1 [Example 282, 4-[3-(1-Hydroxy-1-methyl-ethyl)-benzyl]-6-[4-oxo-2-thioxo-thiazolidin-(5Z)-ylidenemethyl]-4H-benzo[1,4]oxazin-3-one; Compound with ethane-1,2-diamine]
Second: COC(=O)c1cc(CN2C(=O)COc3ccc(C=C4SC(=S)NC4=O)cc32)cc(C(C)(C)C)c1 [Example 57, 3-tert-Butyl-5-[3-oxo-6-(4-oxo-2-thioxo-thiazolidin-5-ylidenemethyl)-2,3-dihydro-1,4-benzoxazin-4-ylmethyl]-benzoic acid methyl ester]
The IC50 of the first is 2.2-fold lower: 13 nM for the first, 29 nM for the second.

Compared with O=C1NC(=S)OC1=Cc1cc(F)c2c(c1)N(Cc1ccc(F)c(Cl)c1)C(=O)CO2 [Example 300, 4-(3-Chloro-4-fluoro-benzyl)-8-fluoro-6-(4-oxo-2-thioxo-oxazolidin-5-ylidenemethyl)-4H-benzo[1,4]oxazin-3-one], CS(=O)(=O)c1cccc(CN2C(=O)COc3c(F)cc(C=C4SC(=S)NC4=O)cc32)c1 [Example 269, 8-Fluoro-4-(3-methanesulfonyl-benzyl)-6-(4-oxo-2-thioxo-thiazolidin-5-ylidenemethyl)-4H-benzo[1,4]oxazin-3-one] is 4.7-fold higher in IC50: 3 nM for the first, 14 nM for the second.

Going from CCN(CC)Cc1ccc(CN2C(=O)COc3c(Cl)cc(C=C4SC(=S)NC4=O)cc32)cc1 [Example 78, 8-Chloro-4-(4-diethylaminomethyl-benzyl)-6-(4-oxo-2-thioxo-thiazolidin-5-ylidenemethyl)-4H-1,4-benzoxazin-3-one] to CCN(CC)Cc1ccc(CN2C(=O)COc3ccc(C=C4SC(=S)NC4=O)cc32)cc1 [Example 21, 4-(4-Diethylaminomethyl-benzyl)-6-(4-oxo-2-thioxo-thiazolidin-5-ylidenemethyl)-4H-1,4-benzoxazin-3-one], the IC50 falls from 57 nM to 14 nM (4.1-fold).

Cc1cc(C#N)cc(CN2C(=O)COc3ccc(C=C4SC(=S)NC4=O)cc32)c1 [Example 120] and CC(C)(C)c1cc(CN2C(=O)COc3ccc(C=C4SC(=S)NC4=O)cc32)cc(C(=O)NCC(=O)O)c1 [Example 60, {3-tert-Butyl-5-[3-oxo-6-(4-oxo-2-thioxo-thiazolidin-5-ylidenemethyl)-2,3-dihydro-1,4-benzoxazin-4-ylmethyl]-benzoylamino}-acetic acid] are within 1.5-fold of each other in IC50: 30 nM for the first, 26 nM for the second.

Going from C[C@@H]1Oc2ccc(C=C3SC(=S)NC3=O)cc2N(CCc2ccc(Cl)c(Cl)c2)C1=O [Example 109, (S)-4-[2-(3,4-Dichloro-phenyl)-ethyl]-2-methyl-6-(4-oxo-2-thioxo-thiazolidin-5-ylidenmethyl)-4H-benzo[1,4]oxazin-3-one] to COc1ccc(CCN2C(=O)COc3ccc(C=C4SC(=S)NC4=O)cc32)cc1 [Example 136, 4-[2-(4-Methoxy-phenyl)-ethyl]-6-(4-oxo-2-thioxo-thiazolidin-5-ylidenemethyl)-4H-1,4-benzoxazin-3-one], the IC50 falls from 330 nM to 7 nM (47-fold). The second is the more potent here.

Compared with CC1CC(C)CN(C(=O)CN2C(=O)COc3ccc(C=C4SC(=S)NC4=O)cc32)C1 (stereo not shown) [Example 213, 4-[2-(3,5-Dimethyl-piperidin-1-yl)-2-oxo-ethyl]-6-(4-oxo-2-thioxo-thiazolidin-5-ylidenemethyl)-4H-1,4-benzoxazin-3-one], CC(C)(C)C1CC(CN2C(=O)COc3ccc(C=C4SC(=S)NC4=O)cc32)CC(C(C)(C)C)C1 (stereo not shown) [Example 250, 4-(3,5-Di-tert-butyl-cyclohexylmethyl)-6-(4-oxo-2-thioxo-thiazolidin-5-ylidenemethyl)-4H-1,4-benzoxazin-3-one] is 12-fold lower in IC50: 2100 nM for the first, 175 nM for the second. The second is the more potent here.

First: CN1CCN(C(=O)c2cc(CN3C(=O)COc4ccc(/C=C5\SC(=S)NC5=O)cc43)cc(C(C)(C)C)c2)CC1 [Example 279, 4-[3-tert-Butyl-5-(4-methyl-piperazine-1-carbonyl)-benzyl]-6-[4-oxo-2-thioxo-thiazolidin-(5Z)-ylidenemethyl]-4H-benzo[1,4]oxazin-3-one]
Second: CC(C)(C)c1cc(CN2C(=O)COc3ccc(C=C4OC(=S)NC4=O)cc32)cc(C(C)(C)C)n1 [Example 201, 4-(2,6-Di-tert-butyl-pyridin-4-ylmethyl)-6-(4-oxo-2-thioxo-oxazolidin-5-ylidenemethyl)-4H-1,4-benzoxazin-3-one]
The IC50 of the first is 4.4-fold lower: 16 nM for the first, 70 nM for the second.

Going from COc1cc(C=C2SC(=S)NC2=O)cc2c1OCC(=O)N2 [Example 6, 8-Methoxy-6-(4-oxo-2-thioxo-thiazolidin-5-ylidenemethyl)-4H-1,4-benzoxazin-3-one] to O=C1COc2ccc(C=C3SC(=S)NC3=O)cc2N1 [Example 1, 6-(4-Oxo-2-thioxo-thiazolidin-5-ylidenemethyl)-4H-1,4-benzoxazin-3-one], the IC50 falls from 560 nM to 78 nM (7.2-fold).

O=C1NC(=O)C(=Cc2cc(F)c3c(c2)N(Cc2ccc(CN4CCCCC4)cc2)C(=O)CO3)S1 [Example 76, 5-[8-Fluoro-3-oxo-4-(4-piperidin-1-ylmethyl-benzyl)-3,4-dihydro-2H-1,4-benzoxazin-6-ylmethylene]-thiazolidine-2,4-dione] was tested, and the IC50 was 6 nM.
